Results: patent publication US20150374646A1, “TREATMENT OF CANCER AND OTHER CONDITIONS USING A TRANSCRIPTION FACTOR MODULATOR” (C & C BIOPHARMA, LLC, priority 2013, published 2015)

How the values were obtained:
Experiment in all cases: Cancer cell line growth inhibition, CellTiter-Glo (Example 3)
Format in all cases: cell-based
[1] = test system: DU-145; conditions: Homo sapiens, Prostate, 72 hours, read-out: growth inhibition of various human cancer cell lines
Description: (§1) YT30 was tested for growth inhibition against 67 human cancer cell lines derived from diverse tissues including the National Cancer Institute human cancer cell lines (NCI-60). […] Cells in different wells were treated with various concentrations of YT30, YT86, YT88, or YT128. […] Cell viabilities were determined by the CellTiter-Glo Luminescence Cell Viability assay kit (Promega Corporation, Madison, Wis.) according to manufacturer's protocol.

[2] = test system: Caski; conditions: Homo sapiens, Ca-Ski, Cervical, 72 hours, read-out: growth inhibition of various human cancer cell lines
Description: as §1

[3] = test system: SNB-19; conditions: Homo sapiens, CNS, 72 hours, read-out: growth inhibition of various human cancer cell lines
Description: as §1

[4] = test system: OVCAR-4; conditions: Homo sapiens, Ovarian, 72 hours, read-out: growth inhibition of various human cancer cell lines
Description: as §1

[5] = test system: SF-539; conditions: Homo sapiens, CNS, 72 hours, read-out: growth inhibition of various human cancer cell lines
Description: as §1

[6] = test system: OVCAR-5; conditions: Homo sapiens, Ovarian, 72 hours, read-out: growth inhibition of various human cancer cell lines
Description: as §1

[7] = test system: OVCAR-3; conditions: Homo sapiens, Ovarian, 72 hours, read-out: growth inhibition of various human cancer cell lines
Description: as §1

[8] = test system: MDA-MB-468; conditions: Homo sapiens, Breast, 72 hours, read-out: growth inhibition of various human cancer cell lines
Description: as §1

[9] = test system: MDA-MB-435; conditions: Homo sapiens, Breast, 72 hours, read-out: growth inhibition of various human cancer cell lines
Description: as §1

[10] = test system: BT-549; conditions: Homo sapiens, Breast, 72 hours, read-out: growth inhibition of various human cancer cell lines
Description: as §1

[11] = test system: NCI/ADR-RES; conditions: Homo sapiens, Breast, 72 hours, read-out: growth inhibition of various human cancer cell lines
Description: as §1

[12] = test system: 786-0; conditions: Homo sapiens, Renal, 72 hours, read-out: growth inhibition of various human cancer cell lines
Description: as §1

[13] = test system: UO-31; conditions: Homo sapiens, Renal, 72 hours, read-out: growth inhibition of various human cancer cell lines
Description: as §1

[14] = test system: K562; conditions: Homo sapiens, Leukemia, 72 hours, read-out: growth inhibition of various human cancer cell lines
Description: as §1

[15] = test system: siHa; conditions: Homo sapiens, Cervical, 72 hours, read-out: growth inhibition of various human cancer cell lines
Description: as §1

[16] = test system: MOLT-4; conditions: Homo sapiens, Leukemia, 72 hours, read-out: growth inhibition of various human cancer cell lines
Description: as §1

[17] = test system: CCRF-CEM; conditions: Homo sapiens, Leukemia, 72 hours, read-out: growth inhibition of various human cancer cell lines
Description: as §1

[18] = test system: U251; conditions: Homo sapiens, U-251, CNS, 72 hours, read-out: growth inhibition of various human cancer cell lines
Description: as §1

[19] = test system: A498; conditions: Homo sapiens, Renal, 72 hours, read-out: growth inhibition of various human cancer cell lines
Description: as §1

[20] = test system: MDA-MB231; conditions: Homo sapiens; Breast, MDA-MB-231; 72 hours; read-out: growth inhibition of various human cancer cell lines
Description: as §1

[21] = test system: MCF7; conditions: Homo sapiens, Breast, MCF-7, 72 hours, read-out: growth inhibition of various human cancer cell lines
Description: as §1

[22] = test system: SR; conditions: Homo sapiens, Leukemia, 72 hours, read-out: growth inhibition of various human cancer cell lines
Description: as §1

[23] = test system: TK-10; conditions: Homo sapiens, Renal, 72 hours, read-out: growth inhibition of various human cancer cell lines
Description: as §1

[24] = test system: SN12C; conditions: Homo sapiens, Renal, 72 hours, read-out: growth inhibition of various human cancer cell lines
Description: as §1

[25] = test system: HL60; conditions: Homo sapiens, HL-60, Leukemia, 72 hours, read-out: growth inhibition of various human cancer cell lines
Description: as §1

[26] = test system: SF-295; conditions: Homo sapiens, CNS, 72 hours, read-out: growth inhibition of various human cancer cell lines
Description: as §1

[27] = test system: T-47D; conditions: Homo sapiens, T47D, Breast, 72 hours, read-out: growth inhibition of various human cancer cell lines
Description: as §1

[28] = test system: HeLa; conditions: Homo sapiens, Cervical, 72 hours, read-out: growth inhibition of various human cancer cell lines
Description: as §1

[29] = test system: SNB-75; conditions: Homo sapiens, CNS, 72 hours, read-out: growth inhibition of various human cancer cell lines
Description: as §1

[30] = test system: HS 578T; conditions: Homo sapiens, Breast, 72 hours, read-out: growth inhibition of various human cancer cell lines
Description: as §1

[31] = test system: SF-268; conditions: Homo sapiens, CNS, 72 hours, read-out: growth inhibition of various human cancer cell lines
Description: as §1

Nc1ccccc1NC(=O)CCCCCNC(=O)c1ccc(-c2ccccc2)o1 [YT88]
IC50 [1]: 16.2 µM | IC50 [2]: 14.2 µM | IC50 [3]: 9.61 µM | IC50 [4]: 11.9 µM | IC50 [5]: 6.91 µM | IC50 [6]: 5.66 µM | IC50 [7]: 6.57 µM | IC50 [8]: 7.42 µM | IC50 [9]: 7.59 µM | IC50 [10]: 10.6 µM | IC50 [11]: 14.2 µM | IC50 [12]: 13.8 µM | IC50 [13]: 9.53 µM | IC50 [14]: 5.74 µM | IC50 [15]: 9.07 µM | IC50 [16]: 3000 nM | IC50 [17]: 2650 nM | IC50 [18]: 4.38 µM | IC50 [19]: 9.54 µM | IC50 [20]: 4.28 µM | IC50 [21]: 3.8 µM | IC50 [22]: 5.89 µM | IC50 [23]: 13.4 µM | IC50 [24]: 7.25 µM | IC50 [25]: 6.97 µM | IC50 [26]: 6.83 µM | IC50 [27]: 15 µM | IC50 [28]: 6.02 µM | IC50 [29]: 11.2 µM | IC50 [30]: 5.67 µM | IC50 [31]: 14.4 µM
